“And” between values parts separate entries of the source, which are not always exact repeats. Identical values can stand only once. “Also recorded” adds a separate entry of the source.
Assays:
[1] = mouse, in vivo
Method: LNPs were injected into mice via the tail vein (ICR female, IV, 0.5 mg mRNA/kg), then mice were anesthetized under carbon dioxide at different time (e.g., 6 h, 24 h, and 48 h) after administration and sacrificed via cardiac puncture. Liver tissue were collected immediately, and then washed by ice-cold saline. Liver samples were weighed and homogenized in ice water bath by adding pre-chilled 20% methanol-water (v/v) at 2˜8° C. with the ratio of 1:5 (w/v). The homogenized tissue samples were stored in −90˜−60° C. freezer prior to analysis.
All liver tissue homogenate samples were allowed to thaw at room temperature. An aliquot of 50 μL of sample was added with 50 μL MgCl2 (2M), then added with ACN which contains of Verapamil, 5 ng mL-1 and Glibenclamide, 50 ng mL-1 and Diclofenac, 200 ng mL^−1 and Tolbutamide, 200 ng mL^−1 for protein precipitation, then centrifuged at 13000 rpm for 8 min. Then 100 μL of supernatant was added with 100 μL water, then vortexed well. An aliquot of 5 μL of the mixture was injected into the LC-MS/MS system.

[2] = Lipid nanoparticle size and polydispersity by dynamic light scattering; format: physicochemical; details: LNP comprising the compound, luciferase mRNA
In short: (§1)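 Ribogreen fluorescence quantifies encapsulated mRNA and backscatter (173°) DLS sizes the particles. These are microfluidically mixed four-component LNPs in DPBS after dialysis.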

[3] = Apparent pKa of LNP formulations (TNS fluorescence assay); format: physicochemical; details: LNP formulation, TNS assay (Table 3)
In short: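 LNPs (cationic lipid/DSPC/cholesterol/DMG-PEG 50/10/38.5/1.5 mol %) diluted to 0.1 mg/mL total lipid in citrate/phosphate/borate/NaCl buffers spanning pH 3–9 with TNS. Fluorescence (ex 325, em 435 nm) read at room temperature; pKa taken as the pH at half-maximal intensity from sigmoidal fit.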

[4] = Encapsulation efficiency of lipid nanoparticles (Quant-it Ribogreen RNA assay); format: physicochemical; details: LNP comprising the compound, luciferase mRNA
In short: as §1

[5] = test system: luciferase mRNA expression; assay: Animal Study 2: bioluminescence of dissected organs; format: in vivo, Balb/c mice
Method: (§2) Lipid nanoparticles comprising compounds in the following table encapsulating mRNA encoding luciferase were systemically administered to 6-8 week old female Balb/c mice (Charles River Lab, ZheJiang) at 0.25 mg/kg dose by tail vein injection and mice blood were sampled at specific time points (e.g., 6 hours) post administration. Optical imaging was performed using the IVIS Spectrum CT device (PerkinElmer Inc., Paris, France). The luminescence level was evaluated by an ROI applied to the injection site zone (Living Image software, PerkinElmer Inc., Paris, France). In addition to the aforementioned tested groups, lipid nanoparticles comprising dilinoleylmethyl-4-dimethylaminobutyrate (other names: DLin-MC3-DMA or MC3) encapsulating luciferase mRNA were similarly administered at the same dose to age and gender comparative groups of mice as a positive control.
Radiance of heart, liver, spleen, lung, kidney, brain and bone marrow were taken at 6 h after administration. The Dissected organs were placed on a black sheet and imaged with IVIS Spectrum CT (PerkinElmer, Hopkinton, MA). To quantify bioluminescence emission signal, identical regions of interest (ROI) were positioned to encircle each organ region, the imaging signal was quantitated as Total Flux [p/s].

[6] = test system: luciferase mRNA expression; assay: Animal Study 2: luciferase mRNA LNPs i.v. in mice, optical imaging; format: in vivo; details: female Balb/c mice, 0.25 mg/kg tail vein injection, e.g. 6 hours; relative to MC3 LNP
Method: as §2
Characteristics of tested lipid nanoparticles, including luciferase expression levels over MC3 measured from the tested group are listed in the table below.

[7] = dissected organ, 6 h after administration, 0.25 mg/kg i.v., ROI 1-3, 0.25 mg/kg

SMILES	% Dose Remaining in Liver Tissue, 6 h ([1]; 6 h)	% Dose Remaining in Liver Tissue, 24 h ([1]; 24 h)	% Dose Remaining in Liver Tissue, 48 h ([1]; 48 h)	Polydispersity [2]	Size (nm) [2]	Apparent pKa [3]	Encapsulation efficiency [4]	Total Flux [p/s], Brain [5, 7]	Total Flux [p/s], Liver [5, 7]	Total Flux [p/s], Lung [5, 7]	Total Flux [p/s], bone marrow [5, 7]	luciferase expression in organs (in words) ([5]; nanoparticle comprising the compound, organs 6 h after administration)	luciferase expression over MC3 [6]
CCCCC/C=C\C/C=C\CCCCCCCCC(CCCCCCCC/C=C\C/C=C\CCCCC)OC(=O)CCCN(C)C [MC3, dilinoleylmethyl-4-dimethylaminobutyrate]	69.39%	61.63%	52.47%	–	–	–	–	–	–	–	–	–	–
CCCCCCCCSSCCOC(=O)CCCCCN(CCCCCO)CCCCC(COC(=O)CCCCCCC)COC(=O)CCCCCCC [Compound 76]	–	–	–	0.069	113.16 nm	6.762	88.12%	4.60E+06 p/s and 4.15E+06 p/s and 5.13E+06 p/s	1.40E+09 p/s and 9.82E+08 p/s and 1.38E+09 p/s	5.18E+06 p/s and 5.48E+06 p/s and 4.33E+06 p/s	2.09E+06 p/s and 3.07E+06 p/s and 2.94E+06 p/s	significant transduction and luciferase expression were observed in liver and spleen; also recorded: high absolute expression in the heart, spleen, lung, kidney, brain	B (≥1 and <2)

— patent publication US20240238212A1, “LIPID COMPOUNDS AND LIPID NANOPARTICLE COMPOSITIONS” (SUZHOU ABOGEN BIOSCIENCES CO., LTD., priority 2022, published 2024)
